Where a name gives a salt, the structure may show the parent alone.
What was measured:
[1] = system: Escherichia coli JUHL; assay: In vivo antibacterial activity in mice (protection from lethal intraperitoneal infection); settings: 144 h, E. coli JUHL, mice infected intraperitoneally, treated at 1 and 5 hr after infection, cumulative mortalities on the sixth day
Protocol: (§1) The in vivo antibacterial activity of the compounds of the present invention was determined as follows: Aqueous solutions of the test compounds were prepared by dissolving the compound in distilled water, except for the compounds of examples 169 and 170 which were dissolved in a solution of 2% DMSO in distilled water.
(§2) After 18 hr incubation, a culture of Staphylococcus aureus NCTC 10649 was serially diluted by using 10-fold dilutions in 5% (w/v) hog gastric mucin. Cultures (0.5 mL) in a dilution from 10^-1 to 10^-8 were injected intraperitoneally into CF-1 female mice weighing approximately 20g. The LD50 (median lethal dose) for the test organism was calculated from the cumulative mortalities on the sixth day by the using the Reed and Muench procedure (Reed, L.J., and H. Muench, Amer. J. Hygiene, 27, 493 (1938)).
(§3) The above 18 hr culture was diluted in 5% (w/v) hog gastric mucin to obtain 100 times the LD50, and 0.5 mL was injected intraperitoneally into mice. The mice were treated subcutaneously (sc) or orally (po) with a specific amount of the test compound divided equally to be administered at 1 and 5 hr after infection. A group of 10 animals each for at least three dose levels was thus treated, and the deaths were recorded daily for 6 days. Ten mice were left untreated as infection control. ED50 values were calculated from the cumulative mortalities on the sixth day after infection by using the trimmed version of the Logit method ( Hamilton, M.A., R.C. Russo, and R.V. Thurston, Environ. Sci. Technol. 11, 714 (1977)).
The LD50 for Escherichia coli JUHL was determined in a manner similar to that above for S. aureus. The 18 hr cultures of this organism were also prepared for po and sc testing in mice, from which ED50 values were calculated. Positive controls were run with temafloxacin as the test compound, for which ED50 values were also calculated.

[2] = system: Pseudomonas cepacia 296I; assay: In vitro antibacterial activity, MIC by agar dilution; type: cell-based; settings: BHI agar, 35-37°C, 20-24 hours, unit assumed
Procedure, shortened: (§4)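 Using a Steers replicator, about 10^4 CFU of each diluted organism were spotted on agar with test compound. After ~20–24 h at 35–37°C, MIC was taken as the lowest concentration without growth compared with compound-free BHI agar; ciprofloxacin served as reference antibiotic.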

[3] = system: Micrococcus luteus ATCC 4698; assay: as above; type: cell-based; settings: BHI agar, 35-37°C, 20-24 hours, unit assumed
Procedure, shortened: as §4

[4] = system: Staphylococcus aureus A-5278; assay: as above; type: cell-based; settings: BHI agar, 35-37°C, 20-24 hours, unit assumed
Procedure, shortened: as §4

[5] = system: Micrococcus luteus ATCC 9341; assay: as above; type: cell-based; settings: BHI agar, 35-37°C, 20-24 hours, unit assumed
Procedure, shortened: as §4

[6] = system: Staphylococcus aureus NCTC 10649; assay: as above; type: cell-based; settings: BHI agar, 35-37°C, 20-24 hours, unit assumed
Procedure, shortened: as §4

[7] = system: Staphylococcus aureus 642A; assay: as above; type: cell-based; settings: BHI agar, 35-37°C, 20-24 hours, unit assumed
Procedure, shortened: as §4

[8] = system: Escherichia coli H560; assay: as above; type: cell-based; settings: BHI agar, 35-37°C, 20-24 hours, unit assumed
Procedure, shortened: as §4

[9] = system: Staphylococcus aureus ATCC 6538P; assay: as above; type: cell-based; settings: BHI agar, 35-37°C, 20-24 hours, unit assumed
Procedure, shortened: as §4

[10] = system: Pseudomonas aeruginosa K799/WT; assay: as above; type: cell-based; settings: BHI agar, 35-37°C, 20-24 hours, unit assumed
Procedure, shortened: as §4

[11] = system: Escherichia coli KNK 437; assay: as above; type: cell-based; settings: BHI agar, 35-37°C, 20-24 hours, unit assumed
Procedure, shortened: as §4

[12] = system: Escherichia coli SS; assay: as above; type: cell-based; settings: BHI agar, 35-37°C, 20-24 hours, unit assumed
Procedure, shortened: as §4

[13] = system: Staphylococcus aureus 1775; assay: as above; type: cell-based; settings: BHI agar, 35-37°C, 20-24 hours, unit assumed
Procedure, shortened: as §4

[14] = system: Enterobacter aerogenes ATCC 13048; assay: as above; type: cell-based; settings: BHI agar, 35-37°C, 20-24 hours, unit assumed
Procedure, shortened: as §4

[15] = system: Escherichia coli DC-2; assay: as above; type: cell-based; settings: BHI agar, 35-37°C, 20-24 hours, unit assumed
Procedure, shortened: as §4

[16] = system: Pseudomonas aeruginosa BMH10; assay: as above; type: cell-based; settings: BHI agar, 35-37°C, 20-24 hours, unit assumed
Procedure, shortened: as §4

[17] = system: Klebsiella pneumoniae ATCC 8045; assay: as above; type: cell-based; settings: BHI agar, 35-37°C, 20-24 hours, unit assumed
Procedure, shortened: as §4

[18] = system: Pseudomonas aeruginosa 2862; assay: as above; type: cell-based; settings: BHI agar, 35-37°C, 20-24 hours, unit assumed
Procedure, shortened: as §4

[19] = system: Staphylococcus aureus A5177; assay: as above; type: cell-based; settings: BHI agar, 35-37°C, 20-24 hours, unit assumed
Procedure, shortened: as §4

[20] = system: Staphylococcus aureus CMX 553; assay: as above; type: cell-based; settings: BHI agar, 35-37°C, 20-24 hours, unit assumed
Procedure, shortened: as §4

[21] = system: Streptococcus pyrogenes EES61; assay: as above; type: cell-based; settings: BHI agar, 35-37°C, 20-24 hours, unit assumed
Procedure, shortened: as §4

[22] = system: Pseudomonas aeruginosa A5007; assay: as above; type: cell-based; settings: BHI agar, 35-37°C, 20-24 hours, unit assumed
Procedure, shortened: as §4

[23] = system: Pseudomonas aeruginosa K799/61; assay: as above; type: cell-based; settings: BHI agar, 35-37°C, 20-24 hours, unit assumed
Procedure, shortened: as §4

[24] = system: Streptococcus agalactaciae CMX 508; assay: as above; type: cell-based; settings: BHI agar, 35-37°C, 20-24 hours, unit assumed
Procedure, shortened: as §4

[25] = system: Escherichia coli JUHL; assay: as above; type: cell-based; settings: BHI agar, 35-37°C, 20-24 hours, unit assumed
Procedure, shortened: as §4

[26] = system: Enterococcus faecium ATCC 8043; assay: as above; type: cell-based; settings: BHI agar, 35-37°C, 20-24 hours, unit assumed
Procedure, shortened: as §4

[27] = system: Pseudomonas aeruginosa 5263; assay: as above; type: cell-based; settings: BHI agar, 35-37°C, 20-24 hours, unit assumed
Procedure, shortened: as §4

[28] = system: Streptococcus pyrogenes CONST; assay: as above; type: cell-based; settings: BHI agar, 35-37°C, 20-24 hours, unit assumed
Procedure, shortened: as §4

[29] = system: Acinetobacter calcoaceticus CMX 669; assay: as above; type: cell-based; settings: BHI agar, 35-37°C, 20-24 hours, unit assumed
Procedure, shortened: as §4

[30] = system: Providencia stuartii CMX 640; assay: as above; type: cell-based; settings: BHI agar, 35-37°C, 20-24 hours, unit assumed
Procedure, shortened: as §4

[31] = system: Streptococcus pyrogenes 2548 INDUC; assay: as above; type: cell-based; settings: BHI agar, 35-37°C, 20-24 hours, unit assumed
Procedure, shortened: as §4

[32] = system: Staphylococcus epidermidis 3519; assay: as above; type: cell-based; settings: BHI agar, 35-37°C, 20-24 hours, unit assumed
Procedure, shortened: as §4

[33] = system: Streptococcus bovis A5169; assay: as above; type: cell-based; settings: BHI agar, 35-37°C, 20-24 hours, unit assumed
Procedure, shortened: as §4

[34] = system: Staphylococcus aureus NCTC 10649; assay: In vivo antibacterial activity in mice (protection from lethal intraperitoneal infection); settings: NCTC10649, 144 h, S. aureus, CF-1 female mice infected intraperitoneally with 100 times the LD50, treated at 1 and 5 hr after infection, cumulative mortalities on the sixth day
Protocol: as §1, §2, §3

What does the source list for `C[C@H]1C[C@H](N)CN1c1nc2c(-c3ccc(F)cc3F)cc(C(=O)O)c(=O)n2cc1F` [Example 171, 2-((2S,4S)-4-Amino-2-methylpyrrolidin-1-yl)-9-(2,4-difluorophenyl)-3-fluoro-6H-6-oxopyrido[1,2-a]pyrimidine-7-carboxylic acid hydrochloride]?
ED50 ([1]; po): > 20 mg/kg; ED50 ([1]; sc): 4.8 mg/kg; MIC values [2]: 6.2 µg/mL; MIC values [3]: 0.78 µg/mL; MIC values [4]: 0.1 µg/mL; MIC values [5]: 3.1 µg/mL; MIC values [6]: 0.1 µg/mL; MIC values [7]: 0.2 µg/mL; MIC values [8]: 0.02 µg/mL; MIC values [9]: 0.1 µg/mL; MIC values [10]: 0.39 µg/mL; MIC values [11]: 0.39 µg/mL; MIC values [12]: 0.001 µg/mL; MIC values [13]: 50 µg/mL; MIC values [14]: 0.1 µg/mL; MIC values [15]: 0.78 µg/mL; MIC values [16]: 0.2 µg/mL; MIC values [17]: 0.01 µg/mL; MIC values [18]: 50 µg/mL; MIC values [19]: 0.1 µg/mL; MIC values [20]: 0.2 µg/mL; MIC values [21]: 0.78 µg/mL; MIC values [22]: 0.39 µg/mL; MIC values [23]: 0.05 µg/mL; MIC values [24]: 0.78 µg/mL; MIC values [25]: 0.02 µg/mL; MIC values [26]: 0.78 µg/mL; MIC values [27]: 50 µg/mL; MIC values [28]: 0.78 µg/mL; MIC values [29]: 0.05 µg/mL; MIC values [30]: 6.2 µg/mL; MIC values [31]: 0.39 µg/mL; MIC values [32]: 0.2 µg/mL; MIC values [33]: 1.56 µg/mL; ED50 ([34]; po): 12.8 mg/kg; ED50 ([34]; sc): > 8 mg/kg
